Experimental data taken from ChEMBL document CHEMBL5131496, “Adiponectin-Secretion-Promoting Cyclic Peptide-Polyketide Hybrids from a Halophyte-Associated Fungus, Colletotrichum gloeosporioides JS0417” (J Nat Prod, 2022).
The source made the active and inactive calls. The rule behind the calls is not given here.

Tests used:
Mesenchymal stem cells [1] = test: Induction of adiponectin secretion in human differentiated BMMSC cells measured at 5 day in the presence of IDX induction medium by ELISA; type: functional, cell-based; details: for EC50: 120 h
Mesenchymal stem cells [2] = test: Induction of adiponectin secretion in human differentiated BMMSC cells assessed as increase in number of lipid droplet at 30 uM in the presence of IDX induction medium by Oil red O staining based inverted phase contrast microscope analysis; type: functional, cell-based
Mesenchymal stem cells [3] = test: Induction of adiponectin secretion in human differentiated BMMSC cells at 30 uM in the presence of IDX induction medium and measured on 5 day by ELISA relative to control; type: functional
Mesenchymal stem cells [4] = test: Induction of adiponectin secretion in human differentiated BMMSC cells assessed as increase in size of lipid droplet at 30 uM in the presence of IDX induction medium by Oil red O staining based inverted phase contrast microscope analysis; type: functional, cell-based
HaCaT [5] = test: Antiinflammatory activity against human HaCaT cells assessed as inhibition of UVB irradiation-induced PGE2 production measured after 2 hrs by ELISA; type: functional, cell-based; details: light or radiation study
Mesenchymal stem cells [6] = test: Induction of adiponectin secretion in human differentiated BMMSC cells assessed as increase in lipid droplet accumulation at 300 uM in the presence of IDX induction medium by Oil red O staining based inverted phase contrast microscope analysis; type: functional, cell-based
HaCaT [7] = test: Antiinflammatory activity against human HaCaT cells assessed as inhibition of UVB irradiation-induced PGE2 production at 10 uM measured after 2 hrs by ELISA; type: functional, cell-based

Which EC50 (Mesenchymal stem cells [1]) does the source give for `CC[C@H](C)[C@H]1C(=O)O[C@H]([C@@H](C)CCCC[C@@H](C)O)C[C@@H](O)[C@@H](C)C(=O)N[C@H](Cc2ccccc2)C(=O)N1C` here?
The EC50 was 22.7 µM.

What about the Activity (Mesenchymal stem cells [2]) of the same compound?
Its Activity is “Active”.

And the Activity (Mesenchymal stem cells [3])?
The Activity was 123%.

What about the Activity (Mesenchymal stem cells [4]) of the same compound?
The Activity was “Active”.

For `CC(C)C[C@H]1NC(=O)[C@H](C)[C@H](O)C[C@@H]([C@@H](C)CCCC[C@@H](C)O)OC(=O)[C@H](CC(C)C)N(C)C1=O`, which EC50 (Mesenchymal stem cells [1]) is on record?
The EC50 was 29.4 µM.

What about the Activity (Mesenchymal stem cells [2]) of the same compound?
Its Activity is “Active”.

And the Activity (Mesenchymal stem cells [3])?
Its Activity is 116%.

And the Activity (Mesenchymal stem cells [4])?
Its Activity is “Active”.

`CCC(C)/C=C/CC(C)/C=C/C(=O)O[C@@H]1[C@@H](O)[C@H](c2c(C)cc(O)cc2O)O[C@H](CO)[C@H]1O` (stereo partly drawn) was tested. Which Activity (Mesenchymal stem cells [3]) did it give?
The Activity was 78%.

For `CC(=O)Oc1ccccc1C(=O)O` [ASPIRIN], which EC50 (Mesenchymal stem cells [1]) is on record?
Its EC50 is greater than 300 µM.

And the IC50 (HaCaT [5])?
Its IC50 is 21.3 µM.

And the Activity (Mesenchymal stem cells [6])?
The Activity was “Active”.

Which EC50 (Mesenchymal stem cells [1]) does the source give for `COc1ccc(Cl)cc1C(=O)NCCc1ccc(S(=O)(=O)NC(=O)NC2CCCCC2)cc1` [GLYBURIDE] here?
Its EC50 is 2.8 µM.

With `Oc1ccc(/C=C/c2cc(O)cc(O)c2)cc1` [RESVERATROL] as the compound, how does the IC50 (HaCaT [5]) read?
Its IC50 is 18.3 µM.

Which results are given for `OCCc1c[nH]c2ccccc12` [TRYPTOPHOL]?
Activity (Mesenchymal stem cells [1]; DDE = dose-dependent effect): Dde; IC50 (HaCaT [5]): 6.55 µM; Activity (HaCaT [7]): Active; Activity (Mesenchymal stem cells [6]): Active
